Structures are written as SMILES. Converted amounts (≈) assume the structure as drawn.

The subject of the first assay is Pasteurella multocida 1633. Description: MIC, serial dilution in nutrient agar, human bacteria. In kind it is cell-based. The note with it: nutrient agar containing 5% chocolated horse blood.
In the case of `COC(=O)CCCCCNC(=O)C=C(C)CC1OCC(CC2OC2C(C)C(C)O)C(O)C1O` (stereo not drawn) [Example 9, 5-Methoxycarbonylpentylamide of monic acid A], the MIC stood at 0.2 µg/mL (≈ 0.424 µM).

A further assay deals with Haemophilus influenzae Q1. The description is as above. In kind it is cell-based. The settings on record: nutrient agar containing 5% chocolated horse blood.
With `COC(=O)CCCCCNC(=O)C=C(C)CC1OCC(CC2OC2C(C)C(C)O)C(O)C1O` (stereo not drawn) [Example 9, 5-Methoxycarbonylpentylamide of monic acid A], the MIC was 0.2 µg/mL (≈ 0.424 µM).

Another assay has as its system Neisseria catarrhalis 1502. The description is as above. In kind it is cell-based. The settings on record: Neisseria catarrhalis 1502; nutrient agar containing 5% chocolated horse blood; read-out: M.I.C.
Consider `COC(=O)CCCCCNC(=O)C=C(C)CC1OCC(CC2OC2C(C)C(C)O)C(O)C1O` (stereo not drawn) [Example 9, 5-Methoxycarbonylpentylamide of monic acid A], for which the MIC was < 0.02 µg/mL.

Another assay has as its system Bacillus subtilis 6633. The description is as above. In kind it is cell-based. The note with it: Bacillus subtilis 6633; nutrient agar containing 5% chocolated horse blood; read-out: M.I.C.
For the molecule `COC(=O)CCCCCNC(=O)C=C(C)CC1OCC(CC2OC2C(C)C(C)O)C(O)C1O` (stereo not drawn) [Example 9, 5-Methoxycarbonylpentylamide of monic acid A], the MIC is 10 µg/mL (≈ 21.2 µM).

Another assay concerns Staph. aureus Oxford. The description is as above. In kind it is cell-based. The settings on record: Staphylococcus aureus.
With `COC(=O)CCCCCNC(=O)C=C(C)CC1OCC(CC2OC2C(C)C(C)O)C(O)C1O` (stereo not drawn) [Example 9, 5-Methoxycarbonylpentylamide of monic acid A], the MIC came out at 25 µg/mL (≈ 53 µM).

In another assay the test system is Staph. aureus Russell. The assay is described as above. In kind it is cell-based. The settings on record: Staphylococcus aureus.
In the case of `COC(=O)CCCCCNC(=O)C=C(C)CC1OCC(CC2OC2C(C)C(C)O)C(O)C1O` (stereo not drawn) [Example 9, 5-Methoxycarbonylpentylamide of monic acid A], the MIC was found to be 100 µg/mL (≈ 212 µM).

The subject of the next assay is Strep. pneumoniae CN33. The assay is described as above. In kind it is cell-based. The note with it: Streptococcus pneumoniae, CN33.
`COC(=O)CCCCCNC(=O)C=C(C)CC1OCC(CC2OC2C(C)C(C)O)C(O)C1O` (stereo not drawn) [Example 9, 5-Methoxycarbonylpentylamide of monic acid A] yielded an MIC of 2.5 µg/mL (≈ 5.3 µM).

The test system of a further assay is Bord. bronchiseptica BO9. Description: MIC, veterinary bacteria. In kind it is cell-based. The note with it: Bordetella bronchiseptica, BO9.
Consider `COC(=O)CCCCCNC(=O)C=C(C)CC1OCC(CC2OC2C(C)C(C)O)C(O)C1O` (stereo not drawn) [Example 9, 5-Methoxycarbonylpentylamide of monic acid A], for which the MIC was 10 µg/mL (≈ 21.2 µM).

For a further assay, the system named is Past. multocida PAI. Description: MIC, veterinary bacteria. In kind it is cell-based. The note with it: Pasteurella multocida; Past. multocida PAI; read-out: M.I.C.
On to `COC(=O)CCCCCNC(=O)C=C(C)CC1OCC(CC2OC2C(C)C(C)O)C(O)C1O` (stereo not drawn) [Example 9, 5-Methoxycarbonylpentylamide of monic acid A], for which the MIC came out at 10 µg/mL (≈ 21.2 µM).

Another assay has as its system Past. haemolytica PA5. Description: MIC, veterinary bacteria. In kind it is cell-based. The settings on record: Mannheimia haemolytica; Past. haemolytica PA5; read-out: M.I.C.
Turning to `COC(=O)CCCCCNC(=O)C=C(C)CC1OCC(CC2OC2C(C)C(C)O)C(O)C1O` (stereo not drawn) [Example 9, 5-Methoxycarbonylpentylamide of monic acid A], the MIC came out at 10 µg/mL (≈ 21.2 µM).

The next assay deals with Staph. aureus B4. Description: MIC, veterinary bacteria. In kind it is cell-based. The note with it: Staphylococcus aureus; Staph. aureus B4; read-out: M.I.C.
`COC(=O)CCCCCNC(=O)C=C(C)CC1OCC(CC2OC2C(C)C(C)O)C(O)C1O` (stereo not drawn) [Example 9, 5-Methoxycarbonylpentylamide of monic acid A]: the MIC was 20 µg/mL (≈ 42.4 µM).

The test system of another assay is Staph. aureus 152. Description: MIC, veterinary bacteria. In kind it is cell-based. The settings on record: Staphylococcus aureus.
In turn, `COC(=O)CCCCCNC(=O)C=C(C)CC1OCC(CC2OC2C(C)C(C)O)C(O)C1O` (stereo not drawn) [Example 9, 5-Methoxycarbonylpentylamide of monic acid A] returned an MIC of 20 µg/mL (≈ 42.4 µM).

Another assay relates to Strep. uberis SPU 1. Description: MIC, veterinary bacteria. The note with it: Streptococcus uberis, SPU1. In kind it is cell-based.
Take `COC(=O)CCCCCNC(=O)C=C(C)CC1OCC(CC2OC2C(C)C(C)O)C(O)C1O` (stereo not drawn) [Example 9, 5-Methoxycarbonylpentylamide of monic acid A]: the MIC was found to be 0.625 µg/mL (≈ 1.33 µM).

Another assay has as its system Strep. dysgalactiae SPD 1. Description: MIC, veterinary bacteria. In kind it is cell-based. The settings on record: Streptococcus dysgalactiae, SPD1.
Molecule `COC(=O)CCCCCNC(=O)C=C(C)CC1OCC(CC2OC2C(C)C(C)O)C(O)C1O` (stereo not drawn) [Example 9, 5-Methoxycarbonylpentylamide of monic acid A] gave an MIC of 0.312 µg/mL (≈ 0.662 µM).

For another assay, the system named is M. suipneumoniae Str. 11. Description: in vitro MIC, anti-mycoplasmal activity. In kind it is cell-based. The note with it: Mesomycoplasma hyopneumoniae, Friis' broth, microtiter method.
In turn, `COC(=O)CCCCCNC(=O)C=C(C)CC1OCC(CC2OC2C(C)C(C)O)C(O)C1O` (stereo not drawn) [Example 9, 5-Methoxycarbonylpentylamide of monic acid A] gave an MIC of 0.625 µg/mL (≈ 1.33 µM).

Another assay concerns M. dispar H225. Description: in vitro MIC, anti-mycoplasmal activity. In kind it is cell-based. The note with it: M. dispar H225; Friis' broth, microtiter method; read-out: M.I.C. An excerpt: (§1) Tables 3 and 4 show the in vitro MIC values (μg/ml) of the compounds of Examples 1 to 9 against a number of mycoplasma organisms, determined in Friis' broth using the microtiter method.
As to `COC(=O)CCCCCNC(=O)C=C(C)CC1OCC(CC2OC2C(C)C(C)O)C(O)C1O` (stereo not drawn) [Example 9, 5-Methoxycarbonylpentylamide of monic acid A], the MIC worked out at 0.312 µg/mL (≈ 0.662 µM).

The next assay relates to M. dispar NCTC 10125. Description: in vitro MIC, anti-mycoplasmal activity. In kind it is cell-based. The note with it: Friis' broth, microtiter method.
Text: as §1
In the case of `COC(=O)CCCCCNC(=O)C=C(C)CC1OCC(CC2OC2C(C)C(C)O)C(O)C1O` (stereo not drawn) [Example 9, 5-Methoxycarbonylpentylamide of monic acid A], the MIC worked out at 0.312 µg/mL (≈ 0.662 µM).

The test system of a further assay is M. fermentans MWKL4. Description: in vitro MIC, anti-mycoplasmal activity. In kind it is cell-based. The note with it: Mycoplasmopsis fermentans, Friis' broth, microtiter method.
Text: as §1
In turn, `COC(=O)CCCCCNC(=O)C=C(C)CC1OCC(CC2OC2C(C)C(C)O)C(O)C1O` (stereo not drawn) [Example 9, 5-Methoxycarbonylpentylamide of monic acid A] showed an MIC of 0.039 µg/mL (≈ 0.0827 µM).

The next assay concerns M. pulmonis JB. Description: in vitro MIC, anti-mycoplasmal activity. In kind it is cell-based. The note with it: Mycoplasmopsis pulmonis, Friis' broth, microtiter method.
Text: as §1
In turn, `COC(=O)CCCCCNC(=O)C=C(C)CC1OCC(CC2OC2C(C)C(C)O)C(O)C1O` (stereo not drawn) [Example 9, 5-Methoxycarbonylpentylamide of monic acid A] gave an MIC of 0.039 µg/mL (≈ 0.0827 µM).

The subject of a further assay is M. suipneumoniae J2206/183b. Description: in vitro MIC, anti-mycoplasmal activity. In kind it is cell-based. The settings on record: Mesomycoplasma hyopneumoniae, Friis' broth, microtiter method.
Text: as §1
The molecule `COC(=O)CCCCCNC(=O)C=C(C)CC1OCC(CC2OC2C(C)C(C)O)C(O)C1O` (stereo not drawn) [Example 9, 5-Methoxycarbonylpentylamide of monic acid A] returned an MIC of 1.25 µg/mL (≈ 2.65 µM).

A further assay concerns M. pneumoniae 427a. Description: in vitro MIC, anti-mycoplasmal activity. In kind it is cell-based. The note with it: Mycoplasmoides pneumoniae, Friis' broth, microtiter method.
`COC(=O)CCCCCNC(=O)C=C(C)CC1OCC(CC2OC2C(C)C(C)O)C(O)C1O` (stereo not drawn) [Example 9, 5-Methoxycarbonylpentylamide of monic acid A] registered an MIC of 5 µg/mL (≈ 10.6 µM).
